Results reported in US20260184663A1, “INDENE COMPOUNDS, PHARMACEUTICAL COMPOSITIONS THEREOF, AND THEIR THERAPEUTIC APPLICATIONS” (NucMito Pharmaceuticals co. Ltd., priority 2022, published 2026).
Like-named read-outs stand apart in the source and are kept apart here.

Assays:
Format in all cases: cell-based
[1] = test system: MDA-MB-231 (breast cancer); experiment: Antiproliferative activity (CCK-8 cell viability), MDA-MB-231; settings: Homo sapiens, 72 h, read-out: Antiproliferative activity in cancerous cells, MDA-MB-231 (inhibition of cell growth); for inhibition at 3.3 µM: Compound concentration: 3.3 μM; for inhibition at 10 µM: Compound concentration: 10 μM; for inhibition at 30 µM: Compound concentration: 30 μM
Protocol: (§1) The antiproliferative activity of a compound was determined in the following cell lines: MDA-MB-231 (breast cancer), HepG2 (liver cancer), SW480 (colon cancer), B16F10 (malignant melanoma), A431 (epidermoid carcinoma), A549 (lung adenocarcinoma), and HeLa (cervical cancer). MDA-MB-231, HepG2, SW480, B16F10, and A431 cells were cultured in Dulbecco's modified Eagle's medium (DMEM) containing 10% fetal bovine serum (FBS). HeLa cells were cultured in MEM/EBSS (MEM) containing 10% FBS. A549 cells were maintained in Kaighn's modification of Ham's F-12 medium containing 10% FBS. A Cell Counting Kit-8 (CCK-8) was used to measure the cell viability of different cells following treatment with the compound.
(§2) Briefly cells were seeded in a 96-well plate at a density of 2,000-5,000 cells/well. Following attachment, the cells were treated with the compound in media at a compound concentration of 3.3 μM, 10 μM, or 30 μM. After the cells were incubated at 37° C. for 72 h, a CCK-8 solution (10 μL) was added to each well. After incubation at 37° C. for 4 h, the absorbance value of each well was determined using a multi-well plate reader at 450 nm. The wells treated with DMSO were taken as a vehicle control. Data were also obtained similarly for all the replicates and the percentage of cell viability was determined with respect to the DMSO-treated cells. The results are summarized in Tables 2-4, wherein A represents no less than […] of cell growth; B represents no less than 30% but less than 50% inhibition of cell growth; and C represents less than 30% inhibition of cell growth.

[2] = test system: HepG2 (liver cancer); experiment: Antiproliferative activity (CCK-8 cell viability), HepG2; settings: Homo sapiens, 72 h, read-out: Antiproliferative activity in cancerous cells, HepG2 (inhibition of cell growth); for inhibition at 3.3 µM: Compound concentration: 3.3 μM; for inhibition at 10 µM: Compound concentration: 10 μM; for inhibition at 30 µM: Compound concentration: 30 μM
Protocol: as §1, §2

[3] = test system: SW480 (colon cancer); experiment: Antiproliferative activity (CCK-8 cell viability), SW480; settings: Homo sapiens, 72 h; for inhibition at 3.3 µM: Compound concentration: 3.3 μM; for inhibition at 10 µM: Compound concentration: 10 μM; for inhibition at 30 µM: Compound concentration: 30 μM
Protocol: as §1, §2

[4] = test system: B16F10 (malignant melanoma); experiment: Antiproliferative activity (CCK-8 cell viability), B16F10; settings: Mus musculus, 72 h, read-out: Antiproliferative activity in cancerous cells, B16F10 (inhibition of cell growth); for inhibition at 3.3 µM: B16-F10, Compound concentration: 3.3 μM; for inhibition at 10 µM: B16-F10, Compound concentration: 10 μM; for inhibition at 30 µM: B16-F10, Compound concentration: 30 μM
Protocol: as §1, §2

[5] = test system: A431 (epidermoid carcinoma); experiment: Antiproliferative activity (CCK-8 cell viability), A431; settings: Homo sapiens, 72 h; for inhibition at 3.3 µM: A-431, Compound concentration: 3.3 μM; for inhibition at 10 µM: A-431, Compound concentration: 10 μM; for inhibition at 30 µM: A-431, Compound concentration: 30 μM
Protocol: as §1, §2

[6] = test system: A549 (lung adenocarcinoma); experiment: Antiproliferative activity (CCK-8 cell viability), A549; settings: Homo sapiens, 72 h; for inhibition at 3.3 µM: Compound concentration: 3.3 μM; for inhibition at 10 µM: Compound concentration: 10 μM; for inhibition at 30 µM: Compound concentration: 30 μM
Protocol: as §1, §2

[7] = test system: HeLa (cervical cancer); experiment: Antiproliferative activity (CCK-8 cell viability), HeLa; settings: Homo sapiens, 72 h, read-out: Antiproliferative activity in cancerous cells, HELA (inhibition of cell growth); for inhibition at 3.3 µM: Compound concentration: 3.3 μM; for inhibition at 10 µM: Compound concentration: 10 μM; for inhibition at 30 µM: Compound concentration: 30 μM
Protocol: as §1, §2

[8] = read-out: Antiproliferative activity in cancerous cells, SW480 (inhibition of cell growth)
[9] = read-out: Antiproliferative activity in cancerous cells, A431 (inhibition of cell growth)
[10] = read-out: Antiproliferative activity in cancerous cells, A549 (inhibition of cell growth)
[11] = read-out: Antiproliferative activity in cancerous cells, SW480

CC1=C(CC(=O)O)c2cc(F)ccc2/C1=C/c1ccc(Oc2ccc(Cl)cc2F)cc1 [E24, (E)-2-(1-(4-(4-Chloro-2-Fluorophenoxy)benzylidene)-5-fluoro-2-methyl-1H-inden-3-yl)acetic acid]
30 to 50%: inhibition at 10 µM [6, 10]
≥ 50%: inhibition at 3.3 µM [1] | inhibition at 10 µM [1] | inhibition at 30 µM [1] | inhibition at 10 µM [2] | inhibition at 30 µM [2] | inhibition at 10 µM [3, 8] | inhibition at 30 µM [3, 8] | inhibition at 3.3 µM [4] | inhibition at 10 µM [4] | inhibition at 30 µM [4] | inhibition at 3.3 µM [5, 9] | inhibition at 10 µM [5, 9] | inhibition at 30 µM [5, 9] | inhibition at 30 µM [6, 10] | inhibition at 10 µM [7] | inhibition at 30 µM [7]
< 30%: inhibition at 3.3 µM [2] | inhibition at 3.3 µM [3, 8] | inhibition at 3.3 µM [6, 10] | inhibition at 3.3 µM [7]

CC1=C(CC(=O)O)c2cc(F)ccc2/C1=C\c1cccc(Oc2ccc(Br)cc2)c1 [C97, (Z)-2-(1-(3-(4-Bromophenoxy)benzylidene)-5-fluoro-2-methyl-1H-inden-3-yl)acetic acid]
30 to 50%: inhibition at 3.3 µM [4] | inhibition at 10 µM [6, 10]
≥ 50%: inhibition at 10 µM [2] | inhibition at 10 µM [4] | inhibition at 10 µM [7]
< 30%: inhibition at 3.3 µM [1] | inhibition at 10 µM [1] | inhibition at 3.3 µM [2] | inhibition at 3.3 µM [3, 8] | inhibition at 10 µM [3, 8] | inhibition at 3.3 µM [5, 9] | inhibition at 10 µM [5, 9] | inhibition at 3.3 µM [6, 10] | inhibition at 3.3 µM [7]

COc1ccc(C(=O)c2ccc(/C=C3/C(C)=C(CC(=O)O)c4cc(F)ccc43)cc2)cc1 [C306, (Z)-2-(5-Fluoro-1-(4-(4-methoxybenzoyl)benzylidene)-2-methyl-1H-inden-3-yl)acetic acid]
30 to 50%: inhibition at 3.3 µM [2] | inhibition at 3.3 µM [3, 8] | inhibition at 10 µM [3, 8] | inhibition at 10 µM [6, 10] | inhibition at 30 µM [6, 10] | inhibition at 3.3 µM [7]
≥ 50%: inhibition at 3.3 µM [1] | inhibition at 10 µM [1] | inhibition at 30 µM [1] | inhibition at 10 µM [2] | inhibition at 30 µM [2] | inhibition at 30 µM [3, 8] | inhibition at 10 µM [4] | inhibition at 30 µM [4] | inhibition at 3.3 µM [5, 9] | inhibition at 10 µM [5, 9] | inhibition at 30 µM [5, 9] | inhibition at 10 µM [7] | inhibition at 30 µM [7]
< 30%: inhibition at 3.3 µM [4] | inhibition at 3.3 µM [6, 10]

CCc1ccc(Oc2ccc(/C=C3/C(C)=C(CC(=O)O)c4cc(Cl)ccc43)cc2)cc1 [C85, (Z)-2-(5-Chloro-1-(4-(4-ethylphenoxy)benzylidene)-2-methyl-1H-inden-3-yl)acetic acid]
30 to 50%: inhibition at 3.3 µM [4]
≥ 50%: inhibition at 3.3 µM [1] | inhibition at 10 µM [1] | inhibition at 3.3 µM [2] | inhibition at 10 µM [2] | inhibition at 10 µM [3, 8] | inhibition at 10 µM [4] | inhibition at 3.3 µM [5, 9] | inhibition at 10 µM [5, 9] | inhibition at 10 µM [6, 10] | inhibition at 3.3 µM [7] | inhibition at 10 µM [7]
< 30%: inhibition at 3.3 µM [3, 8] | inhibition at 3.3 µM [6, 10]

CCc1ccc2c(c1)C(CC(=O)O)=C(C)/C2=C/c1ccc(COc2ccc(F)c(F)c2)cc1 [B55, (Z)-2-(1-(4-((3,4-Difluorophenoxy)methyl)benzylidene)-5-ethyl-2-methyl-1H-inden-3-yl)acetic acid]
≥ 50%: inhibition at 3.3 µM [1] | inhibition at 10 µM [1] | inhibition at 10 µM [2] | inhibition at 10 µM [3, 8] | inhibition at 3.3 µM [4] | inhibition at 10 µM [4] | inhibition at 10 µM [5, 9] | inhibition at 10 µM [6, 10] | inhibition at 10 µM [7]
30 to 50%: inhibition at 3.3 µM [5, 9] | inhibition at 3.3 µM [6, 10]
< 30%: inhibition at 3.3 µM [2] | inhibition at 3.3 µM [3, 8] | inhibition at 3.3 µM [7]

CC1=C(CC(=O)O)c2cc(F)ccc2/C1=C\c1ccc(COc2ccc(Cl)cc2)cc1Br [B72, (Z)-2-(1-(2-Bromo-4-((4-chlorophenoxy)methyl)benzylidene)-5-fluoro-2-methyl-1H-inden-3-yl)acetic acid]
≥ 50%: inhibition at 3.3 µM [2] | inhibition at 10 µM [2] | inhibition at 3.3 µM [4] | inhibition at 10 µM [4] | inhibition at 3.3 µM [5, 9] | inhibition at 10 µM [5, 9] | inhibition at 3.3 µM [6, 10] | inhibition at 10 µM [6, 10] | inhibition at 3.3 µM [7] | inhibition at 10 µM [7]
30 to 50%: inhibition at 3.3 µM [1] | inhibition at 10 µM [1] | inhibition at 3.3 µM [3, 8] | inhibition at 10 µM [3, 8] | inhibition at 30 µM [3, 11]

CC1=C(CC(=O)O)c2cc(F)ccc2/C1=C\c1ccc(C(=O)c2ccc(F)cc2)cc1 [C305, (Z)-2-(5-Fluoro-1-(4-(4-fluorobenzoyl)benzylidene)-2-methyl-1H-inden-3-yl)acetic acid]
30 to 50%: inhibition at 3.3 µM [2] | inhibition at 3.3 µM [3, 8] | inhibition at 3.3 µM [5, 9] | inhibition at 3.3 µM [7]
< 30%: inhibition at 3.3 µM [4] | inhibition at 3.3 µM [6, 10]
≥ 50%: inhibition at 3.3 µM [1] | inhibition at 10 µM [1] | inhibition at 30 µM [1] | inhibition at 10 µM [2] | inhibition at 30 µM [2] | inhibition at 10 µM [3, 8] | inhibition at 30 µM [3, 8] | inhibition at 10 µM [4] | inhibition at 30 µM [4] | inhibition at 10 µM [5, 9] | inhibition at 30 µM [5, 9] | inhibition at 10 µM [6, 10] | inhibition at 30 µM [6, 10] | inhibition at 10 µM [7] | inhibition at 30 µM [7]

CC1=C(CC(=O)O)c2cc(F)ccc2/C1=C\c1cccc(CNc2ccccc2)c1 [B14, (Z)-2-(5-Fluoro-2-methyl-1-(3-((phenylamino)methyl)benzylidene)-1H-inden-3-yl)acetic acid]
30 to 50%: inhibition at 10 µM [1] | inhibition at 30 µM [3, 11] | inhibition at 10 µM [4] | inhibition at 30 µM ([5]; read-out: Antiproliferative activity in cancerous cells, A431) | inhibition at 30 µM ([6]; read-out: Antiproliferative activity in cancerous cells, A549) | inhibition at 3.3 µM [7] | inhibition at 10 µM [7]
≥ 50%: inhibition at 3.3 µM [6, 10] | inhibition at 10 µM [6, 10]
< 30%: inhibition at 3.3 µM [1] | inhibition at 3.3 µM [2] | inhibition at 10 µM [2] | inhibition at 3.3 µM [3, 8] | inhibition at 10 µM [3, 8] | inhibition at 3.3 µM [4] | inhibition at 3.3 µM [5, 9] | inhibition at 10 µM [5, 9]
